Legend:
[1] = tested on: human ovarian cancer cells A2780; assay: proliferation inhibitory activity against human ovarian cancer cell A2780 (CellTiter-Glo); assay type: cell-based; settings: A2780, 72 h, 1 μM test compound, 3 days of culture, read-out: proliferation inhibitory rate (%) of A2780 cells
Summary of the method: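 A2780 cells in RPMI-1640 with 10% FBS, compound added the day after seeding and cultured 3 days. Viability by CellTiter-Glo luminescence. Inhibition (%) calculated with cell-free wells as 100% inhibition.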

[2] = target: T1, human PRS protein (His-Avi-hEPRS (998-1512)) (Homo sapiens, UniProt P07814); assay: PRS inhibitory activity ([32P]pyrophosphate exchange enzyme assay); assay type: biochemical; settings: 300 nM test compound; read-out: inhibitory rate (%) of PRS
T1 construct: to construct His-Avi-hEPRS (998-1512) expression plasmid; His tag (N); Avi tag (N); TEV cleavage site (ENLYFQG, then S; inferred from the forward primer hEPRS-TEV-NheF) (N); made in house; host or cells: E. coli BL21(DE3)
T1 sequence (P07814 998-1512 limits assumed): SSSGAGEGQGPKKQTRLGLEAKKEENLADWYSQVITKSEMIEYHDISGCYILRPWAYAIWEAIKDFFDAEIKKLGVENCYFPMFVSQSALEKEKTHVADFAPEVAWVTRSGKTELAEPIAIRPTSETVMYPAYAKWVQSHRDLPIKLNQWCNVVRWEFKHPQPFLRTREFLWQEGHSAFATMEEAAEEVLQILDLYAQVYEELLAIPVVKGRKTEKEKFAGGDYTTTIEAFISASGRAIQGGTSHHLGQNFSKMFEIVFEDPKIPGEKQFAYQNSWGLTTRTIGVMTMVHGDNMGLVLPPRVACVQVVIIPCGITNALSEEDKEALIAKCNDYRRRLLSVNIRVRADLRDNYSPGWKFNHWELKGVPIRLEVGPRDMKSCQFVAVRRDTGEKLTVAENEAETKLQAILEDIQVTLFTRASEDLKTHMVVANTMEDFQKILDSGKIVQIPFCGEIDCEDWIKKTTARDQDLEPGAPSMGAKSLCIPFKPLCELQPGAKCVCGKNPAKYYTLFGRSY
Summary of the method: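 Compound was pre-incubated 60 min with 40 nM His-Avi-hEPRS (998-1512) (stock, E. coli-expressed) in Tris pH 7.5/KCl/DTT/Tween/MgCl2. Reaction began with substrate mix containing 300 μM ATP, 160 μM L-proline, 400 μM [32P]pyrophosphate (stock levels) and ran 30 min at room temperature. Charcoal-bound radioactivity was counted; inhibition was relative to no-reaction control.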

Cn1cc(-c2cc(F)cc(CNC(=O)c3nccc4nc(C5CCCC5)n(CC(N)=O)c34)c2)cn1 [Example 128, 3-(2-amino-2-oxoethyl)-2-cyclopentyl-N-(3-fluoro-5-(1-methyl-1H-pyrazol-4-yl)benzyl)-3H-imidazo[4,5-c]pyridine-4-carboxamide]
inhibition at 1 µM [1]: 97%
inhibition at 0.3 µM [2]: 102%

Cn1cc(-c2cc(F)cc(CNC(=O)c3nccc4nc(C5CCCC5)n(CC#N)c34)c2)cn1 [Example 131, 3-(cyanomethyl)-2-cyclopentyl-N-(3-fluoro-5-(1-methyl-1H-pyrazol-4-yl)benzyl)-3H-imidazo[4,5-c]pyridine-4-carboxamide]
inhibition at 1 µM [1]: 93%
inhibition at 0.3 µM [2]: 101%

Cc1cc(N2CCC(C)(C)C2=O)cc(C(=O)NCc2cc(F)cc(-c3cnn(C)c3)c2)n1 [Example 165, 4-(3,3-dimethyl-2-oxopyrrolidin-1-yl)-N-(3-fluoro-5-(1-methyl-1H-pyrazol-4-yl)benzyl)-6-methylpyridine-2-carboxamide]
inhibition at 1 µM [1]: 75%
inhibition at 0.3 µM [2]: 100%

Cc1cc(N2CC[C@@](C#N)(C3CC3)C2=O)cc(C(=O)NCc2cc(C#N)cc(-c3cnn(C)c3)c2)n1 [Example 167, 4-((3S)-3-cyano-3-cyclopropyl-2-oxopyrrolidin-1-yl)-N-(3-cyano-5-(1-methyl-1H-pyrazol-4-yl)benzyl)-6-methylpyridine-2-carboxamide]
inhibition at 1 µM [1]: 98%
inhibition at 0.3 µM [2]: 99%

Cc1cc(N2CC[C@@](C#N)(C3CC3)C2=O)cc(C(=O)NCc2cc(F)cc(-c3cnn(C4CC4)c3)c2)n1 [Example 168, 4-((3S)-3-cyano-3-cyclopropyl-2-oxopyrrolidin-1-yl)-N-(3-(1-cyclopropyl-1H-pyrazol-4-yl)-5-fluorobenzyl)-6-methylpyridine-2-carboxamide]
inhibition at 1 µM [1]: 98%
inhibition at 0.3 µM [2]: 100%

Cc1cc(N2CC[C@@](C#N)(C3CC3)C2=O)cc(C(=O)NCc2cc(F)cc(-c3ccc(=O)n(C)c3)c2)n1 [Example 169, 4-((3S)-3-cyano-3-cyclopropyl-2-oxopyrrolidin-1-yl)-N-(3-fluoro-5-(1-methyl-6-oxo-1,6-dihydropyridin-3-yl)benzyl)-6-methylpyridine-2-carboxamide]
inhibition at 1 µM [1]: 98%
inhibition at 0.3 µM [2]: 100%

Cc1cc(N2CC[C@@](C#N)(C3CC3)C2=O)cc(C(=O)NCc2cc(F)cc(-c3cnn(C4CCOCC4)c3)c2)n1 [Example 182, 4-((3S)-3-cyano-3-cyclopropyl-2-oxopyrrolidin-1-yl)-N-(3-fluoro-5-(1-(tetrahydro-2H-pyran-4-yl)-1H-pyrazol-4-yl)benzyl)-6-methylpyridine-2-carboxamide]
inhibition at 1 µM [1]: 97%
inhibition at 0.3 µM [2]: 101%

Cc1cc(N2CC[C@@](C#N)(C3CC3)C2=O)cc(C(=O)NCc2cc(F)cc(-c3cnc(C)s3)c2)n1 [Example 187, 4-((3S)-3-cyano-3-cyclopropyl-2-oxopyrrolidin-1-yl)-N-(3-fluoro-5-(2-methyl-1,3-thiazol-5-yl)benzyl)-6-methylpyridine-2-carboxamide]
inhibition at 1 µM [1]: 65%
inhibition at 0.3 µM [2]: 99%

Cc1cc(-c2cc(F)cc(CNC(=O)c3cc(N4CC[C@@](C#N)(C5CC5)C4=O)cc(C)n3)c2)cnn1 [Example 207, 4-((3S)-3-cyano-3-cyclopropyl-2-oxopyrrolidin-1-yl)-N-(3-fluoro-5-(6-methylpyridazin-4-yl)benzyl)-6-methylpyridine-2-carboxamide]
inhibition at 1 µM [1]: 59%
inhibition at 0.3 µM [2]: 96%

Cc1cc(-c2cc(F)cc(CNC(=O)c3cc(N4CC[C@@](C#N)(C5CC5)C4=O)cc(C)n3)c2)ccn1 [Example 209, 4-((3S)-3-cyano-3-cyclopropyl-2-oxopyrrolidin-1-yl)-N-(3-fluoro-5-(2-methylpyridin-4-yl)benzyl)-6-methylpyridine-2-carboxamide]
inhibition at 1 µM [1]: 80%
inhibition at 0.3 µM [2]: 100%

Cn1cc(-c2cc(F)cc(CNC(=O)c3cc(N4CC[C@@](C#N)(C5CC5)C4=O)cc(C(F)F)n3)c2)cn1 [Example 214, 4-((3S)-3-cyano-3-cyclopropyl-2-oxopyrrolidin-1-yl)-6-(difluoromethyl)-N-(3-fluoro-5-(1-methyl-1H-pyrazol-4-yl)benzyl)pyridine-2-carboxamide]
inhibition at 1 µM [1]: 72%
inhibition at 0.3 µM [2]: 99%

Cc1cc(N2CC[C@@](C#N)(C3CC3)C2=O)cc(C(=O)NCc2cc(Cl)cc(-c3cnn(C)c3)c2)n1 [Example 216, N-(3-chloro-5-(1-methyl-1H-pyrazol-4-yl)benzyl)-4-((3S)-3-cyano-3-cyclopropyl-2-oxopyrrolidin-1-yl)-6-methylpyridine-2-carboxamide]
inhibition at 1 µM [1]: 89%
inhibition at 0.3 µM [2]: 101%

Cc1cc(CNC(=O)c2cc(N3CC[C@@](C#N)(C4CC4)C3=O)cc(C)n2)cc(-c2cnn(C)c2)c1 [Example 217, 4-((3S)-3-cyano-3-cyclopropyl-2-oxopyrrolidin-1-yl)-6-methyl-N-(3-methyl-5-(1-methyl-1H-pyrazol-4-yl)benzyl)pyridine-2-carboxamide]
inhibition at 1 µM [1]: 80%
inhibition at 0.3 µM [2]: 101%

Cc1cc(N2C(=O)[C@](C#N)(C3CC3)C[C@@H]2C)cc(C(=O)NCc2cc(F)cc(-c3cnn(C)c3)c2)n1 [Example 221, 4-((3S,5S)-3-cyano-3-cyclopropyl-5-methyl-2-oxopyrrolidin-1-yl)-N-(3-fluoro-5-(1-methyl-1H-pyrazol-4-yl)benzyl)-6-methylpyridine-2-carboxamide]
inhibition at 1 µM [1]: 64%
inhibition at 0.3 µM [2]: 99%

Cc1cn(-c2cc(F)cc(CNC(=O)c3cc(N4CC[C@@](C#N)(C5CC5)C4=O)cc(C)n3)c2)cn1 [Example 228, 4-((3S)-3-cyano-3-cyclopropyl-2-oxopyrrolidin-1-yl)-N-(3-fluoro-5-(4-methyl-1H-imidazol-1-yl)benzyl)-6-methylpyridine-2-carboxamide]
inhibition at 1 µM [1]: 88%
inhibition at 0.3 µM [2]: 100%

Cc1cc(N2CCC(C#N)(C3CCC3)C2=O)cc(C(=O)NCc2cc(F)cc(-c3cnn(C)c3)c2)n1 (centres unmarked) [Example 229, 4-(3-cyano-3-cyclobutyl-2-oxopyrrolidin-1-yl)-N-(3-fluoro-5-(1-methyl-1H-pyrazol-4-yl)benzyl)-6-methylpyridine-2-carboxamide]
inhibition at 1 µM [1]: 91%
inhibition at 0.3 µM [2]: 100%

Cc1cc(N2CCC3(CCC3)C2=O)cc(C(=O)NCc2cc(F)cc(-c3cnn(C)c3)c2)n1 [Example 232, N-(3-fluoro-5-(1-methyl-1H-pyrazol-4-yl)benzyl)-6-methyl-4-(5-oxo-6-azaspiro[3.4]oct-6-yl)pyridine-2-carboxamide]
inhibition at 1 µM [1]: 64%
inhibition at 0.3 µM [2]: 100%

Cc1cc(N2CCC3(CC3)C2=O)cc(C(=O)NCc2cc(F)cc(-c3cnn(C)c3)c2)n1 [Example 233, N-(3-fluoro-5-(1-methyl-1H-pyrazol-4-yl)benzyl)-6-methyl-4-(4-oxo-5-azaspiro[2.4]hept-5-yl)pyridine-2-carboxamide]
inhibition at 1 µM [1]: 70%
inhibition at 0.3 µM [2]: 100%

Cc1cc(N2CC[C@@](C#N)(C3CC3)C2=O)nc(C(=O)NCc2cc(F)cc(-c3cnn(C)c3)c2)n1 [Example 238, 4-((3S)-3-cyano-3-cyclopropyl-2-oxopyrrolidin-1-yl)-N-(3-fluoro-5-(1-methyl-1H-pyrazol-4-yl)benzyl)-6-methylpyrimidine-2-carboxamide]
inhibition at 1 µM [1]: 95%
inhibition at 0.3 µM [2]: 101%
